Reference: patent US8093258B2, “Use of urokinase inhibitors for the treatment and/or prevention of neuropathological diseases” (Wilex AG, priority 2005, dated 2012)

How the values were obtained:
[1] = test system: ALS; settings: ALS treatment with riluzole; cited from earlier work
[2] = test system: FALS mice (G93A); experiment: Treatment of G93A FALS mice with uPA inhibitor WX-C340 (survival analysis, disease progression); type: in vivo; settings: 10 mg WX-C340 i.p. daily
Procedure: Kaplan-Meyer-Analysis, G93A-ALS-model: Comparison of the survival of control group animals (N=42) with animals treated with 10 mg/kg WX-C340 i.p. Daily (treatment start day 30, n=18).
FALS mice (G93A) begin to show behavioral symptoms at about 90 days of age while G85R mice develop symptoms at about 8 months of age. The initial symptoms is a high frequency resting tremor. This progresses to gait abnormalities and uncoordinated movements. Later the mice begin to show paralysis of the hind limbs, eventually progressing to paralysis of the forelimbs and finally to complete paralysis. Animals were sacrificed when they were unable to roll over within 10 seconds of being pushed on their side. This time point is taken as the time of death.

Row | SMILES | prolongation of life [1] | progression of disease (onset of paralysis of the front legs) [2] | survival of the animals (Kaplan-Meyer analysis, FIG. 4) ([2]; treatment start day 30, versus control group)
1 | Nc1nc2ccc(OC(F)(F)F)cc2s1 [riluzole] | ca. 3 months |  | 
2 | Cl.N=C(N)Nc1ccc(CNC(=O)CNC(=O)[C@@H](CO)NS(=O)(=O)Cc2ccc(Cl)cc2)cc1 [WX-C340, 4-chlorobenzyl-sulfonyl-(D)-Ser-Gly-(4-guanidinobenzyl)amide hydrochloride] |  | delays the progression of disease | significantly improves the survival
